Test system: 991263-137-R1-J2-PDC complex spheroid viability
Experiment: Anticancer human tumor 991263-137-R1-J2-PDC patient-derived colon adenocarcinoma cell line growth inhibition [POLQ]
Conditions: for IC50: curve of first compound; for viability, T/C: stronger effect = lower value
Description: Multicellular complex tumor spheroid response to Polymerase (POL) inhibitors (novobiocin, ART-558, RP6685) in combination with a variety of drugs and investigational agents in selected tumor cell lines
The POL inhibitors (novobiocin, ART-558, and RP6685) were evaluated both individually and in combination with standard of care and investigational anticancer small molecules within a complex spheroid model of solid tumors. . Complex spheroids include a stromal component modeled by human endothelial cells (HUVEC) and fibroblasts modeled by human mesenchymal stem cells (MSCs). The concentration ranges selected for each drug and investigational agent were based upon clinically achievable concentrations if the clinical Cmax of the agent was known.
Compounds. The drugs and investigational agents: novobiocin (NSC847541), ART-558 (NSC835418), RP-6685 (NSC848927), peposertib (NSC802822), ceralasertib (NSC780249), elimusertib (NSC800525), camonsertib (NSC841442), AZD-1390 (NSC803789), olaparib (NSC753686), talazoparib (NSC767125), rucaparib (NSC756644), sotorasib (NSC818433), MRTX-1133 (NSC836407), SN-38 (NSC673596), topotecan (NSC609699), epotoside (NSC141540), doxorubicin (NSC123127), gemcitabine (NSC613327), 5-fluorouracil (NSC19893), paclitaxel (NSC125973), vemurafenib (NSC761431), MSA-2 (NSC828583), SN-011 (NSC837082), adavosertib (NSC754352), prexasertib (NSC758257), carboplatin (NSC241240) and oxaliplatin (NSC266046), were obtained from the National Cancer Institute (NCI) Developmental Therapeutics Program Chemical Repository (21). The FDA-approved anticancer drug set is available from the Developmental Therapeutics Program at https://dtp.cancer.gov/organization/dscb/obtaining/. […] The stock solutions were prepared in dimethyl sulfoxide (DMSO, Sigma-Aldrich, St. Louis, MO, cat. D2650), except for the platinum compounds which were prepared in saline (Quality Biological, Gaithersburg, MD, cat. 114-055-101), at 800-fold the tested concentration and stored at -70 degrees C prior to their use. All drugs and investigational agents were tested over a range starting from a high concentration at or near the clinical Cmax and decreasing in half-log increments. If the clinical Cmax for an agent had not been determined, the highest concentration tested was 10 microM, except for SN-38, which was tested at a high concentration of 1 microM.
Cell Culture. All cells were maintained in an incubator at 37 degrees C and 5% CO2 with 95% humidity. The PDC lines were cultured according to standard operating procedures established by the NCI PDMR (https://pdmr.cancer.gov). Table 3 of the manuscript, lists the cell lines along with the number of the three cell types plated to form the mct-spheroids and media for tumor cell growth. After thawing, all PDC lines, except 997537-175-T-J1-PDC and 415267-285-R-J2-PDC, were cultured in Matrigel-coated flasks prepared with a working solution of 1X Ham's F-12 nutrient mix, without supplementation (Thermo Fisher Scientific, cat. 11765054), 100 U/mL penicillin-streptomycin (Thermo Fisher Scientific, cat. 15140122), and 2.5% Matrigel (Corning Inc., Corning, NY, cat. 354248) for the first three passages. The two PDC lines 997537-175-T-J1-PDC and 415267-285-R-J2-PDC were cultured on uncoated flasks. The 857933-349-R-J2-PDC line was cultured in 6C/Colon 1B media containing advanced DMEM/F-12 (Thermo Fisher Scientific, cat. 12634028), 10 mM HEPES (Thermo Fisher Scientific, cat. 15630080), 1X GlutaMAX supplement (Thermo Fisher Scientific, cat. 35050061), 0.1 mg/mL primocin (InvivoGen, San Diego, CA, cat. ant-pm-2), 10% defined fetal bovine serum, heat inactivated (HyClone Laboratories Inc., Logan, UT, cat. SH30070.03HI), 50% L-WRN conditioned media (ATCC, cat. CRL-3276), 1.25 mM N-Acetyl-L-cysteine (Sigma-Aldrich, cat. A9165), 10 mM nicotinamide (Sigma-Aldrich, cat. N0636), 1X B-27 supplement (Thermo Fisher Scientific, cat. 17504044), 1X N-2 supplement (Thermo Fisher Scientific, cat. […]

[1] = second compound 0.0316 µM, first compound 0.0316 µM
[2] = second compound 0.0316 µM, first compound 0.1 µM
[3] = second compound 0.0316 µM, first compound 0.316 µM
[4] = second compound 0.0316 µM, first compound 1 µM
[5] = second compound 0.1 µM, first compound 0.0316 µM
[6] = second compound 0.1 µM, first compound 0.1 µM
[7] = second compound 0.1 µM, first compound 0.316 µM
[8] = second compound 0.1 µM, first compound 1 µM
[9] = second compound 0.316 µM, first compound 0.0316 µM
[10] = second compound 0.316 µM, first compound 0.1 µM
[11] = second compound 0.316 µM, first compound 0.316 µM
[12] = second compound 0.316 µM, first compound 1 µM
[13] = second compound 1 µM, first compound 0.0316 µM
[14] = second compound 1 µM, first compound 0.1 µM
[15] = second compound 1 µM, first compound 0.316 µM
[16] = second compound 1 µM, first compound 1 µM
[17] = second compound 3.16 µM, first compound 0.0316 µM
[18] = second compound 3.16 µM, first compound 0.1 µM
[19] = second compound 3.16 µM, first compound 0.316 µM
[20] = second compound 3.16 µM, first compound 1 µM
[21] = second compound 10 µM, first compound 0.0316 µM
[22] = second compound 10 µM, first compound 0.1 µM
[23] = second compound 10 µM, first compound 0.316 µM
[24] = second compound 10 µM, first compound 1 µM
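Also: spheroids exposed to compounds for 7 days before readout.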
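For viability, T/C in this document: 100% = DMSO vehicle control viability.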

Compound: CCc1cc2c(N3CCc4c(cc(Cn5ccnc5)cc4-c4cn(C)nc4C(F)(F)F)C3=O)ccnc2c(OC)n1 + Cc1cccc(N(C)C(=O)C2C(O)CCN2c2nc(C)cc(C(F)(F)F)c2C#N)c1
- IC50 (second compound 0.0316 µM): > 10000 nM
- IC50 (second compound 0.1 µM): > 10000 nM
- IC50 (second compound 0.316 µM): > 10000 nM
- IC50 (second compound 1 µM): > 10000 nM
- IC50 (second compound 3.16 µM): > 10000 nM
- IC50 (second compound 10 µM): > 10000 nM
- viability, T/C [1]: 95.3%
- viability, T/C [2]: 108%
- viability, T/C [3]: 107%
- viability, T/C [4]: 87.2%
- viability, T/C (second compound 0.0316 µM, first compound 3.16 µM): 82.8%
- viability, T/C (second compound 0.0316 µM, first compound 10 µM): 91.7%
- viability, T/C [5]: 103%
- viability, T/C [6]: 100%
- viability, T/C [7]: 97.7%
- viability, T/C [8]: 95.9%
- viability, T/C (second compound 0.1 µM, first compound 3.16 µM): 96.7%
- viability, T/C (second compound 0.1 µM, first compound 10 µM): 88.3%
- viability, T/C [9]: 104%
- viability, T/C [10]: 96.8%
- viability, T/C [11]: 93.4%
- viability, T/C [12]: 95.7%
- viability, T/C (second compound 0.316 µM, first compound 3.16 µM): 100%
- viability, T/C (second compound 0.316 µM, first compound 10 µM): 94.4%
- viability, T/C [13]: 105%
- viability, T/C [14]: 98.4%
- viability, T/C [15]: 110%
- viability, T/C [16]: 96%
- viability, T/C (second compound 1 µM, first compound 3.16 µM): 103%
- viability, T/C (second compound 1 µM, first compound 10 µM): 92%
- viability, T/C [17]: 106%
- viability, T/C [18]: 97.5%
- viability, T/C [19]: 90.4%
- viability, T/C [20]: 96.2%
- viability, T/C (second compound 3.16 µM, first compound 3.16 µM): 90.3%
- viability, T/C (second compound 3.16 µM, first compound 10 µM): 89%
- viability, T/C [21]: 96.6%
- viability, T/C [22]: 111%
- viability, T/C [23]: 97%
- viability, T/C [24]: 89.9%
- viability, T/C (second compound 10 µM, first compound 3.16 µM): 91.4%
- viability, T/C (second compound 10 µM, first compound 10 µM): 83%

Compound: COc1cccc(OCCCN)c1-c1cc(Nc2cnc(C#N)cn2)n[nH]1 + Nc1ccc(C#CCN(C(=O)Cc2ncc(C(F)(F)F)cc2C(F)(F)F)c2ccc(F)cc2)nn1
- IC50 (second compound 0.0316 µM): 718 nM
- IC50 (second compound 0.1 µM): 587 nM
- IC50 (second compound 0.316 µM): 666 nM
- IC50 (second compound 1 µM): 728 nM
- IC50 (second compound 3.16 µM): 425 nM
- IC50 (second compound 10 µM): 87.4 nM
- viability, T/C (second compound 0.0316 µM, first compound 0.00316 µM): 114%
- viability, T/C (second compound 0.0316 µM, first compound 0.01 µM): 89.4%
- viability, T/C [1]: 105%
- viability, T/C [2]: 83.4%
- viability, T/C [3]: 55.9%
- viability, T/C [4]: 47.5%
- viability, T/C (second compound 0.1 µM, first compound 0.00316 µM): 104%
- viability, T/C (second compound 0.1 µM, first compound 0.01 µM): 105%
- viability, T/C [5]: 100%
- viability, T/C [6]: 82.8%
- viability, T/C [7]: 57.8%
- viability, T/C [8]: 43.5%
- viability, T/C (second compound 0.316 µM, first compound 0.00316 µM): 102%
- viability, T/C (second compound 0.316 µM, first compound 0.01 µM): 106%
- viability, T/C [9]: 103%
- viability, T/C [10]: 85.1%
- viability, T/C [11]: 67.9%
- viability, T/C [12]: 40.7%
- viability, T/C (second compound 1 µM, first compound 0.00316 µM): 106%
- viability, T/C (second compound 1 µM, first compound 0.01 µM): 95.2%
- viability, T/C [13]: 89.4%
- viability, T/C [14]: 80.9%
- viability, T/C [15]: 70.5%
- viability, T/C [16]: 42%
- viability, T/C (second compound 3.16 µM, first compound 0.00316 µM): 102%
- viability, T/C (second compound 3.16 µM, first compound 0.01 µM): 93.2%
- viability, T/C [17]: 83.4%
- viability, T/C [18]: 70.4%
- viability, T/C [19]: 51.5%
- viability, T/C [20]: 41.4%
- viability, T/C (second compound 10 µM, first compound 0.00316 µM): 93.3%
- viability, T/C (second compound 10 µM, first compound 0.01 µM): 96.5%
- viability, T/C [21]: 73%
- viability, T/C [22]: 46.8%
- viability, T/C [23]: 49.9%
- viability, T/C [24]: 44.2%

— PubChem BioAssay AID1963828 (Molecular Pharmacology Branch, DTP, NCI, 2024)
